Source: paper PMC9078399, “Discovery of N-cyclobutylaminoethoxyisoxazole derivatives as novel sigma-1 receptor ligands with neurite outgrowth efficacy in cells” (RSC Advances, 2018)
“Also recorded” adds a separate entry of the source.

Assays:
[1] = biological target: σ1 receptor; design: method as in PMID 21278085, PMID 15170821, PMID 18647636, PMID 22935988, PMID 21967807; conditions: representative σ1 receptor ligands, Fig. 1; cited from earlier work
[2] = biological target: T1, σ1 receptor (Cavia porcellus, UniProt Q60492); test: Radioligand binding at σ1 receptor ([3H]-(+)-pentazocine, NIMH PDSP); design: species or system Guinea pig; conditions: for Ki: [3H]-(+)-pentazocine, Guinea pig brain homogenate, mean ± SEM, three independent experiments; for Selectivity (Ki σ2/Ki σ1): ratio of Ki σ2 to Ki σ1
T1 construct: σ1 receptor, [^3H]-(+)-pentazocine, Guinea pig brain homogenate; from tissue; host or cells: Guinea pig brain homogenate
T1 sequence (Q60492 whole entry): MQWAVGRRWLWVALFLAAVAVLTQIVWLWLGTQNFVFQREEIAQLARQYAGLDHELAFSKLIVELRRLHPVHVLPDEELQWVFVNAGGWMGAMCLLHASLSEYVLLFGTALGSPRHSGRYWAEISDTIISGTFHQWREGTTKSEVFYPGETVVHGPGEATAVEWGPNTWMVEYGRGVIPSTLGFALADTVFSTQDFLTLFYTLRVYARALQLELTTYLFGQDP
Source text: (§1) In this study, [^3H] pentazocine and [^3H]DTG (6) were used as the radioligands at σ1 and σ2 receptors. Firstly, we examined the effects of changing the substituents on the benzene ring. […] Mono-halogen substitution on the benzene ring exemplified by compounds 17–20 generally retained affinity for σ1 receptor compared with compound 7. […] The derivatives 21–25 also maintained similar high affinities for the σ1 receptor upon incorporation of two halogen atoms on the benzene ring. However, this is also accompanied with higher binding affinity to the σ2 receptor. […]. Next, we examined the effects of removing the methyl group on the basic nitrogen atom. […] […]. […] The results for the secondary amines 28 and 29 indicate that the hydrogen bond donor on basic nitrogen atom was beneficial for increased binding affinity to the σ1 receptor.
(§2) Radioligand competition studies were carried out by the National Institute of Mental Health's Psychoactive Drug Screening Program, Contract #HHSN-271-2008-00025-C (NIMH PDSP). The general procedures are listed as follows:
(§3) All the test compounds solution (1 mg mL^−1) were prepared by dissolving in DMSO or buffer solvent (50 mM Tris–HCl, pH = 8.0). The filter-mats were presoaked in 0.5% aqueous polyethyleneimine solution for 2 h at rt before use. All binding experiments were carried out in poly-L-lysine-coated 96-well plate and the final test concentration (50 μM, 5 μM, 1.5 μM, 500 nM, 150 nM, 50 nM, 15 nM, 5 nM, 1.5 nM, 0.5 nM, 0.05 nM) were prepared by addition of Tris–HCl solution (50 mM, pH = 8.0). The following specific radioligands and tissue source were used: (a) σ1 receptor, [^3H]-(+)-pentazocine, Guinea pig brain homogenate; (b) σ2 receptor, [^3H]-DTG, PC-12 cells. 100 μL of corresponding radioligand solution, 100 μL test compound solution and 50 μL of the respective receptor preparation into each well of the plate (total volume 250 μL). During the incubation, the plates were shaken at a speed of 500–600 rpm at the specified temperature (σ1 receptor, 37 °C, 150 min; σ2 receptor, rt, 120 min). The incubation was followed by a rapid vacuum filtration through Whatman GF/B glass filters, and the filtrates were washed twice with 10 mL of cold buffer and transferred to the 6 mL scintillation vials. EcoScint scintillation fluid (4.0 mL) was added, and the radioactivity bound was measured using a Beckman LS 6500 liquid scintillation counter. All experiments were performed at least three times.
(§4) For experimental details please refer to the PDSP website http://pdsp.med.unc.edu/.[28]

[3] = biological target: T2, σ2 receptor (Rattus norvegicus, UniProt Q5U3Y7); test: Radioligand binding at σ2 receptor ([3H]-DTG, NIMH PDSP); conditions: for Ki: [3H] DTG, PC12 cells, mean ± SEM, three independent experiments; for Increase of binding affinity for σ2 receptor relative to compound 7: compared with parent compound 7
T2 construct: (b) σ2 receptor, [^3H]-DTG, PC-12 cells; endogenous in cells; host or cells: PC-12 cells
T2 sequence (Q5U3Y7 1-176): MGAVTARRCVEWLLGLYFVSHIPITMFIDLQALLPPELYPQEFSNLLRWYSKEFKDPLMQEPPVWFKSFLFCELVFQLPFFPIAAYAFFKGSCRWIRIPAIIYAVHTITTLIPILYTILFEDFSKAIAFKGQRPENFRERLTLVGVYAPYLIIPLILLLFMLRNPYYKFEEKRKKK
Source text: as §1, §2, §3, §4

[4] = test system: N1E-115 neuronal cells; test: Neurite outgrowth in N1E-115 cells; assay type: cell-based, mouse; conditions: 10 μM in DMSO, four days, vs. vehicle (DMSO)
Experimental: Following the radioligand binding studies and CNS MPO calculations, all of the synthesized derivatives were further tested in cellular neuritogenesis studies. In this study, N1E-115 neuronal cells were used as a screening platform for assessing the neuritogenesis effects of candidate compounds.[31,32] All the derivatives and positive control (compound 7 and RC-33) were assessed at 10 μM concentration in DMSO, and vehicle group using DMSO alone.
N1E-115 cells, the mouse neuroblastoma cell lines, were obtained from the American Type Culture Collection (ATCC, Manassas, VA, USA). Undifferentiated N1E115 cells were cultured in DMEM complete medium with 10% fetal bovine serum, 100 U mL^−1 of penicillin, and 100 μg mL^−1 of streptomycin and maintained at 37 °C in a humidified incubator supplemented with 5% CO2. N1E-115 cells were seeded at a density of 1 × 10^4 cells per mL on poly-L-lysine-coated 96-well plates and grown with DMSO or different tested compounds (10 μM) in DMSO solution for four days. Four days after incubation, morphometric analysis was performed on digitized images of live cells taken under phase contrast illumination with an inverted microscope linked to a camera. Images of five fields per well were taken with an average of 100 cells per field. Cells that had at least one neurite with a length that was twice as long as the body diameter were expressed as a percentage of the total cells in the field. The counting was performed in a blinded manner. All experiments were performed at least five times.

[5] = biological target: DAT: dopamine transporter (Homo sapiens, UniProt Q01959); test: Radioligand binding at DAT ([3H] WIN35428)
Sequence of DAT: dopamine transporter (Q01959 whole entry): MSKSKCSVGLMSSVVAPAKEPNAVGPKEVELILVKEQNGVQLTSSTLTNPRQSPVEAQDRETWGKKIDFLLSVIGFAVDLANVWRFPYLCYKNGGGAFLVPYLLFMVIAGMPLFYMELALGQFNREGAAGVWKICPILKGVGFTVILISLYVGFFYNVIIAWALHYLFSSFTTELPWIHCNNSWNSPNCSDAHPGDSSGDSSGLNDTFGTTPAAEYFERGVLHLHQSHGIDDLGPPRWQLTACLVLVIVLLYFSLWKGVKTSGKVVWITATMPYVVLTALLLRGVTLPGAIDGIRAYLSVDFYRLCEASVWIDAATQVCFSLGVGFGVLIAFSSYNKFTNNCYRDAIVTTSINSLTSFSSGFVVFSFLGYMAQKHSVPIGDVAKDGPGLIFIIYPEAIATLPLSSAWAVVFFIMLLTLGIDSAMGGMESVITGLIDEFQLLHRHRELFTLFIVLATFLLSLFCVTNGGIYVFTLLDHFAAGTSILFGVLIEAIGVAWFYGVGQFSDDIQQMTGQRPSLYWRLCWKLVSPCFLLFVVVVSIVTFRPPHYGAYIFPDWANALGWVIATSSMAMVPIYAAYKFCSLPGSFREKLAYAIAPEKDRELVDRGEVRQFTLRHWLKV
Experimental: (§5) In order to exclude the potential interference of other receptor pathways to the observed neuritogenesis efficacy, we assessed the binding affinities of compounds 7, 18, 22, 24, 25, 28 and 29 at the biogenic amine transporters (NET, DAT, and SERT).
as §2, §4

[6] = biological target: NET: norepinephrine transporter (Homo sapiens, UniProt P23975); test: Radioligand binding at NET ([3H] nisoxetine)
Sequence of NET: norepinephrine transporter (P23975 whole entry): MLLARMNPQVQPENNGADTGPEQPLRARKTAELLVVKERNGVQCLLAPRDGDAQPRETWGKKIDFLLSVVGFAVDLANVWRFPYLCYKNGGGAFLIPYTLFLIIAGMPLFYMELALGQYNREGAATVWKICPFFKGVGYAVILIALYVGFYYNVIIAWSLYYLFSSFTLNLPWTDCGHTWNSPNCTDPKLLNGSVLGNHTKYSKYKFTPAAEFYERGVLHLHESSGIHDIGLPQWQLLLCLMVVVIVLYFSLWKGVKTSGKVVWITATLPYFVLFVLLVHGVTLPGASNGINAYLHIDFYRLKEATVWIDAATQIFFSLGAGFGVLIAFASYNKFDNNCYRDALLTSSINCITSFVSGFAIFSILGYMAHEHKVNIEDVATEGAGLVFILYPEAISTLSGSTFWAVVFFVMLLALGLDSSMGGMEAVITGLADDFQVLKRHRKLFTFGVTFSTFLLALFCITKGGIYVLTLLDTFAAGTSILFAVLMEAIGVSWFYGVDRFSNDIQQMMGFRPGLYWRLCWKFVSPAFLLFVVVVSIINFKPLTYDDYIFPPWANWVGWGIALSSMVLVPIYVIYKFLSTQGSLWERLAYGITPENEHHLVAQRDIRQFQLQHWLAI
Experimental: as §5, §2, §4

[7] = biological target: σ2 receptor; design: method as in PMID 21278085, PMID 15170821, PMID 18647636, PMID 22935988, PMID 21967807; conditions: representative σ1 receptor ligands, Fig. 1; cited from earlier work

Ki [2] | Selectivity (Ki σ2/Ki σ1) [2] | Ki [3] | SMILES | Ki [1] | Neurite outgrowth (neuritogenesis) effect [4] | Ki [5] | Ki [6] | Decrease of affinity for σ1 receptor relative to compound 7 ([2]; compared with parent compound 7) | Increase of binding affinity for σ2 receptor relative to compound 7 [3] | Ki [7]
– | – | – | C[C@H](CCN1CCCCC1)c1ccc(-c2ccccc2)cc1 [(R)-RC-33] | 1.8 nM | – | – | – | – | – | –
1.9 nM | 48 | 91.5 ± 7.5 nM | CN(CCOc1cc(COc2cccc(F)c2)on1)C1CCC1.Cl [Compound 17, N-(2-((5-((3-Fluorophenoxy)methyl)isoxazol-3-yl)oxy)ethyl)-N-methylcyclobutanamine hydrochloride] | – | – | – | – | – | – | –
0.8 ± 0.1 nM | 131 | 105 ± 21 nM | CN(CCOc1cc(COc2cccc(Br)c2)on1)C1CCC1.Cl [Compound 19, N-(2-((5-((3-Bromophenoxy)methyl)isoxazol-3-yl)oxy)ethyl)-N-methylcyclobutanamine hydrochloride] | – | – | – | – | – | – | –
5.5 ± 1.3 nM | 16 | 86.6 ± 16.8 nM | CN(CCOc1cc(COc2ccc(Br)cc2)on1)C1CCC1.Cl [Compound 20, N-(2-((5-((4-Bromophenoxy)methyl)isoxazol-3-yl)oxy)ethyl)-N-methyl-cyclobutanamine hydrochloride] | – | – | – | – | – | – | –
1.7 ± 0.3 nM | 90 | 153 ± 37 nM | CN(CCOc1cc(COc2ccc(F)c(F)c2)on1)C1CCC1.Cl [Compound 21, N-(2-((5-((3,4-Difluorophenoxy)methyl)isoxazol-3-yl)oxy)ethyl)-N-methylcyclobutanamine hydrochloride] | – | – | – | – | – | – | –
3.2 ± 1.6 nM | 11 | 36 ± 9.7 nM | CN(CCOc1cc(COc2ccc(Cl)c(Cl)c2)on1)C1CCC1.Cl [Compound 23, N-(2-((5-((3,4-Dichlorophenoxy)methyl)isoxazol-3-yl)oxy)ethyl)-N-methylcyclobutanamine hydrochloride] | – | – | – | – | – | – | –
4 ± 1.2 nM | 9.5 | 38 ± 2 nM | CN(CCOc1cc(COc2cccc(C(F)(F)F)c2)on1)C1CCC1.Cl [Compound 26, N-Methyl-N-(2-((5-((3-(trifluoromethyl)phenoxy)methyl)isoxazol-3-yl)oxy)ethyl)cyclobutanamine hydrochloride] | – | better efficacy than other mono-substituted compounds | – | – | – | – | –
4.2 ± 1.9 nM | 29.5 | 124 ± 68 nM | Cc1cccc(OCc2cc(OCCN(C)C3CCC3)no2)c1.Cl [Compound 27, N-Methyl-N-(2-((5-((m-tolyloxy)methyl)isoxazol-3-yl)oxy)ethyl)cyclobutanamine hydrochloride] | – | – | – | – | – | 3 fold | –
16 ± 5 nM | 3.3 | 53.5 ± 0.5 nM | Cl.c1ccc(OCc2cc(OCCN(C3CCC3)C3CCC3)no2)cc1 [Compound 30, N-Cyclobutyl-N-(2-((5-(phenoxymethyl)isoxazol-3-yl)oxy)ethyl)cyclobutanamine hydrochloride] | – | – | – | – | – | – | –
– | – | – | CCCN(CCC)CCc1ccc(OC)c(OCCc2ccccc2)c1 [NE-100] | 1.03 nM | – | – | – | – | – | 212 nM
– | – | – | O=C(OCCN1CCOCC1)C1(c2ccccc2)CCCCC1 [PRE-084] | – | – | – | – | – | – | > 10000 nM

SMILES | Ki [2] | Selectivity (Ki σ2/Ki σ1) [2] | Ki [3] | Ki [1] | Neurite outgrowth (neuritogenesis) effect [4] | Ki [5] | Ki [6] | Decrease of affinity for σ1 receptor relative to compound 7 ([2]; compared with parent compound 7) | Increase of binding affinity for σ2 receptor relative to compound 7 [3] | Ki [7]
CN(CCOc1cc(COc2ccc(F)cc2)on1)C1CCC1.Cl [Compound 18, N-(2-((5-((4-Fluorophenoxy)methyl)isoxazol-3-yl)oxy)ethyl)-N-methylcyclobutanamine hydrochloride] | 0.9 ± 0.1 nM | 87 | 78.5 ± 19.5 nM | – | preferable neurite outgrowth effects compared to the parent compound 7 and positive control RC-33; also recorded: significant neuritogenesis effects | 5630 nM | – | – | – | –
CN(CCOc1cc(COc2cc(F)cc(F)c2)on1)C1CCC1.Cl [Compound 22, N-(2-((5-((3,5-Difluorophenoxy)methyl)isoxazol-3-yl)oxy)ethyl)-N-methylcyclobutanamine hydrochloride] | 2.4 ± 1.2 nM | 24 | 57 ± 20.1 nM | – | preferable neurite outgrowth effects compared to the parent compound 7 and positive control RC-33; also recorded: significant neuritogenesis effects | > 10000 nM | 2880 nM | – | – | –
CN(CCOc1cc(COc2cc(Cl)cc(Cl)c2)on1)C1CCC1.Cl [Compound 24, N-(2-((5-((3,5-Dichlorophenoxy)methyl)isoxazol-3-yl)oxy)ethyl)-N-methylcyclobutanamine hydrochloride] | 7.8 ± 3.2 nM | 3.0 | 22.8 ± 11.1 nM | – | preferable neurite outgrowth effects compared to the parent compound 7 and positive control RC-33; also recorded: significant neuritogenesis effects | 1810 nM | 1610 nM | 4 fold | more than 10 fold | –
CN(CCOc1cc(COc2ccc(F)c(Cl)c2)on1)C1CCC1.Cl [Compound 25, N-(2-((5-((3-Chloro-4-fluorophenoxy)methyl)isoxazol-3-yl)oxy)ethyl)-N-methylcyclobutanamine hydrochloride] | 1.3 ± 0.4 nM | 25 | 32 ± 6 nM | – | preferable neurite outgrowth effects compared to the parent compound 7 and positive control RC-33; also recorded: significant neuritogenesis effects | > 10000 nM | 1780 nM | – | – | –
Cl.c1ccc(OCc2cc(OCCNC3CCC3)no2)cc1 [Compound 28, N-(2-((5-(Phenoxymethyl)isoxazol-3-yl)oxy)ethyl)cyclobutanamine hydrochloride] | 0.2 nM | 990 | 198 ± 64 nM | – | preferable neurite outgrowth effects compared to the parent compound 7 and positive control RC-33; also recorded: significant neuritogenesis effects | – | 7100 nM | – | – | –
Cl.Clc1cccc(OCc2cc(OCCNC3CCC3)no2)c1 [Compound 29, N-(2-((5-((3-Chlorophenoxy)methyl)isoxazol-3-yl)oxy)ethyl)cyclobutanamine hydrochloride] | 0.4 ± 0.1 nM | 161 | 64.5 ± 13.2 nM | – | preferable neurite outgrowth effects compared to the parent compound 7 and positive control RC-33; also recorded: significant neuritogenesis effects | 1520 nM | 600 nM | – | – | –
